Assays:
[1] = system: panel of 10-12 trained assessors; assay: Determination of salivation effect: Quantitative Descriptive Analysis, Time-Intensity measurement of salivating mouthfeel; type: in vivo; conditions: for Increase Angle (°) / Time to Maximum Salivatory Effect / Area under Curve / Intensity at Maximum: salivating effect, chewy confectionary with 46.0 wt % test sweetener, 90 second test period, mean of at least 13 repetitions; for Area under Curve / Intensity at Maximum: relative values
Description: (§1) Quantitative Descriptive Analysis was used to determine the salivation effect of the invention. Seven samples of confectionary were tasted by a panel of 10-12 trained assessors using the technique of Time-Intensity measurement. The samples differed only in the sweetener component of the product.
(§2) This technique involves the testing of the confectionary sample in a sensory booth. The booth contained a computer equipped with software which allowed the panellist to record the perceived level of the mouth-watering sensation with time. Each assessor measured the perceived intensity of salivating mouthfeel at 1 second intervals over a time period of 90 seconds for each sample. This was achieved by initiating a timer within the software as the sample was placed in the mouth. Over the subsequent 90 second period the position of a marker on a linear slide scale was adjusted according to the perceived level of salivation. The data thus obtained was then processed to produce an analysis curve (intensity of effect versus time). The assessment was repeated multiple times (multiple assessors were used and at least three repetitions per assessor) and the result derived from the mean of the values obtained. The parameters determined were as follows: • Time to maximum salivatory effect, the time taken in seconds for the sample to reach its maximum intensity, a short time being indicative of the desired rapid inception of mouth-watering; • Intensity of salivation at maximum, the highest point in the curve as recorded by each assessor, a high intensity being generally preferred; • Area under the analysis curve, the larger this area the greater the total salivation over the 90 second test period; and • Increase angle, the angle in degrees of ascent from the first recorded value to the maximum intensity, a greater increase angle on the curve illustrates which samples have the greatest increase in salivation per unit time.
A series of tests were carried out to determine the mouth-watering effect and cooling effect derived from each of a range of sweeteners. The sweeteners tested were sugar (sucrose), erythritol, isomaltulose, trehalose, galactose, dextrose monohydrate and xylitol. Conventional methods were used to prepare this candy chew.

[2] = Determination of cooling effect: drop in temperature on dissolving sweetener powder in distilled water at 37° C.; type: physicochemical; conditions: cooling effect of sweeteners, tested in duplicate, mean
Experimental: 150 g of sweetener powder was dissolved in 50 ml of distilled water at 37° C. with stirring. The drop in temperature was measured after 20 seconds than a further 50 ml of distilled water added and the temperature measured after a further 20 seconds. This step was repeated […] to a total volume of water of 200 ml. All samples were tested in duplicate and the result derived from the mean of the values obtained. The repeated addition of water was intended to mimic the conditions in the mouth, where more saliva would be produced as chewing of the comestible progresses. As a result, the cooling effect is indicative of the cooling effect that would be observed in the mouth upon dissolution of the sweetener during consumption.

[3] = system: panel of 10-12 trained assessors; assay: Quantitative Descriptive Analysis of cooling effect (temperature decrease in the nose and mouth); type: in vivo; conditions: mean of at least 10 repetitions; for Increase Angle (°) / Area under Curve / Intensity at Maximum: cooling effect; for Area under Curve / Intensity at Maximum: relative values; for Time to maximum cooling effect: table of cooling effect parameters
Description: as §1, §2
In addition, the Quantitative Descriptive Analysis as described above with regard to the evaluation of salivation was applied to determine the time to maximum cooling effect, the intensity of cooling at maximum, the area under the analysis curve and the increase angle. Cooling was assessed in terms of the temperature decrease in the nose and mouth, at the time of drawing air into the mouth. As with the determination of salivation using this technique, for effective cooling, a larger value is desirable for all parameters except the time to maximum cooling.

[4] = Studies by the applicant on galactose in sports drinks; type: in vivo; conditions: compared with glucose

| Compound | Increase Angle (°) [1] [°] | Time to Maximum Salivatory Effect [1] [s] | Area under Curve [1] | Intensity at Maximum [1] | Magnitude of reduction in temperature at T = 90 seconds (° C.) [2] [°C] | Increase Angle (°) [3] [°] | Area under Curve [3] | Intensity at Maximum [3] | Time to maximum cooling effect [3] [s] | incidence of hypoglycaemia [4] | overall sporting performance [4] | mouth-watering effect relative to that observed through the use of sugar ([1]; at the 90 second interval, FIG. 1) |
| --- | --- | --- | --- | --- | --- | --- | --- | --- | --- | --- | --- | --- |
| O.O=C[C@H](O)[C@@H](O)[C@H](O)[C@H](O)CO [Dextrose Monohydrate, dextrose monohydrate] | 38 | 76.7 | 2306 | 52.1 | 14.5 | 36.5 | 663 | 24 | 81.9 | – | – | – |
| OC[C@@H](O)[C@@H](O)CO [Erythritol, erythritol] | 51.8 | 64.8 | 4079 | 73 | – | 81.5 | 3431 | 59.9 | 63.5 | – | – | – |
| O=C[C@H](O)[C@@H](O)[C@@H](O)[C@H](O)CO [Galactose, galactose] | 51.5 | 62 | 3561 | 64.9 | 11.0 | 39.3 | 725 | 14.6 | 57.1 | lower | increased | approximately 2.5 times |
| OC[C@H]1O[C@H](OC[C@H]2OC(O)(CO)[C@@H](O)[C@@H]2O)[C@H](O)[C@@H](O)[C@@H]1O (some centres unmarked) [Isomaltulose, isomaltulose] | 31.1 | 65.7 | 1898 | 34.3 | – | – | – | – | – | – | – | – |
| OC[C@@H](O)[C@@H](O[C@H]1O[C@H](CO)[C@@H](O)[C@H](O)[C@H]1O)[C@H](O)[C@@H](O)CO [Maltitol] | – | – | – | – | 16.5 | – | – | – | – | – | – | – |
| OC[C@@H](O)[C@@H](O)[C@H](O)[C@H](O)CO [Mannitol] | – | – | – | – | 13.0 | – | – | – | – | – | – | – |
| OC[C@H]1O[C@@](CO)(O[C@H]2O[C@H](CO)[C@@H](O)[C@H](O)[C@H]2O)[C@@H](O)[C@@H]1O [Sugar, sucrose] | 35.1 | 58.9 | 1673 | 28.6 | 13.5 | – | – | – | – | – | – | – |
| OC[C@H]1O[C@H](O[C@H]2O[C@H](CO)[C@@H](O)[C@H](O)[C@H]2O)[C@H](O)[C@@H](O)[C@@H]1O [Trehalose, trehalose] | 35.3 | 66.5 | 2253 | 43 | – | – | – | – | – | – | – | – |
| OC[C@@H](O)[C@H](O)[C@@H](O)CO [Xylitol, xylitol] | 39.3 | 70.3 | 2874 | 53.1 | 26.0 | 46 | 2457 | 44.7 | 64.5 | – | – | – |

— patent US20110123670A1, “COMESTIBLE PRODUCTS” (priority 2007, published 2011)
